Measurements as given in patent US20050054103A1, “Expansion of renewable stem cell populations using modulators of PI 3-kinase” (priority 2003, published 2005).

Columns and labels:
CD34+ cell cultures = experiment: Colony forming unit (CFU, LTC-CFUc) ability of RAR antagonist treated CD34+ cultures; assay type: cell-based, human; details: for No. of CFU*103: RAR antagonist 10^−5 M for one week only
Description: Cells were cloned in semi-solid, methylcellulose-containing medium supplemented with 2 IU/ml erythropoietin (Eprex, Cilag AG Int., Switzerland), stem cell factor and IL-3, both at 20 ng/ml, and G-CSF and GM-CSF, both at 10 ng/ml (all from Perpo Tech). Cultures were incubated for 14 days at 37° C., 5% CO2 in a humidified atmosphere.
Briefly, the ability of the cultures to maintain self-renewal was measured by determination of the content of colony forming unit cells in the long and extended long-term cultures (LTC-CFUc), as described in the references hereinabove.
Long-term CD34^+ cell cultures were supplemented with a combination of 4 cytokines, Flt3, TPO, IL-6 and IL-3, with and without varying predetermined concentrations of the RAR antagonist AGN 194310. RAR antagonist treatment of the cultures was for a limited period of three weeks or was continuous during the entire culture period. The ability to form CFUs was determined for long-term (6 weeks) cultures treated with 2 doses of the RAR antagonist for a short pulse or continuously and was compared to control samples treated with cytokines alone.

primary hepatocytes = experiment: Primary hepatocyte cultures with RAR antagonist (AFP/albumin immunostaining, Giemsa); assay type: cell-based, mice; details: for α-fetoprotein (AFP) expression vs control: three week old primary cultures, no cytokines
Description: Three intact livers were harvested from 3 week old VLVC female mice (Harlan Laboratories, Jerusalem, Israel), dissected and washed twice with DMEM (Beit Haemek, Israel), incubated with DMEM in the presence 0.05% collagenase for 30 minutes at 37° C., ground and passed through a 200 μm mesh sieve, yielding individual hepatocytes. Cells were washed twice and viability was ascertained with trypan blue. Cells were plated in collagen-coated, 35 mm tissue culture plates at a density of 4-×10^4 live cells/ml in F12 media (containing 15 mM Hepes, 0.1% glucose, 10 mM sodium bicarbonate, 100 units/ml penicillin-streptomycin, glutamine, 0.5 units/ml insulin, 7.5 m cg/ml hydrocortisone, and 10% fetal bovine serum). Medium was changed after 12 hours, the cells were washed twice with phosphate buffered saline (PBS) and new medium was added. Medium was changed twice a week.
Hepatocytes were also grown in the presence of Epidermal Growth Factor (EGF), Platelet-Derived Growth Factor β chain (PDGF-BB), Fibroblast growth Factors (FGF-4) and Hepatocyte Growth Factor (HGF), at 20-50 ng/ml each, for the entire culturing period according to the method of Schwartz et al. (Schwartz R E, Reyes M, Koodie L, Jiang Y, Blackstad M, Lund T, Lenvik T, Johnson S, Hu W S, Verfaillie C M. Multipotent adult progenitor cells from bone marrow differentiate into functional hepatocyte-like cells. J Clin Invest. 2002; 109 (10): 1291-302). Hepatocytes were also grown in serum free medium according to the method of Runge et al. (Runge D, Runge D M, Jager D, Lubecki K A, Beer Stolz D, Karathanasis S, Kietzmann T, Strom S C, Jungermann K, Fleig W E, Michalopoulos G K. Serum-free, long-term cultures of human hepatocytes: maintenance of cell morphology, transcription factors, and liver-specific functions. Biochem Biophys Res Commun. 2000; 269(1): 46-53).
In all of the above-mentioned hepatocytes culture conditions, cells are grown in the presence or absence of the retinoic acid antagonist AGN 194310 at concentrations ranging from 10^−5 M to 10^−9 M.
After a period of 3 weeks, cultures treated with 10^−5 M antagonist were detached with 0.25% trypsin, split and replated at a 1:2 ratio. The cells were either immunostained as described below, or visualized with Giemsa staining.
Murine hepatocyte cultures supplemented with EGF and HGF were evaluated as primary cultures, or following first and second passages. First passage cultures were grown for 2 weeks, split 1:2 and immunostained 8 days later for the presence of albumin, as described below. Second passage cultures were similarly grown for 2 weeks, split 1:2, and grown for an additional week, then split 1:4 and similarly immunostained 4 days later. […]

HL-60 cells = experiment: Copper determination in chelator treated cells (atomic absorption); assay type: cell-based, human
Description: Copper Determination: Cells were harvested by centrifugation at 1000×g for 5 minutes. The cell pellet was washed three times by re-suspending the cells in PBS (Ca^++ and Mg^++ free) and centrifugation at 1000×g. An aliquot containing 2×10^6 cells was then transferred into a metal-free Eppendorf tube and the cells were recovered by centrifugation at 1000×g. The cell pellet was re-suspended in 0.03 M ultra-pure nitric acid to give a concentration of 1×10^7 cells/ml. The cells were homogenized with a high shear mixer (polytron, Kinematica, Switzerland) for 1 minutes to disrupt the cell and release intracellular copper content. Cell samples were vortexed before transferring to a vial autosampler and analyzed in duplicate by a Perkin Elmer graphite furnace atomic absorption spectrophotometer at a wavelength of 324.7 nm. The samples were analyzed against copper standard solution prepared from a commercial stock solution that was diluted with 0.03 M ultra pure nitric acid.
FIG. 44 provides the chemical structure of the various chelators employed in these experiments.

Cord blood-derived cells = experiment: Storage and separation of cord blood cells in the presence of TEPA, then long-term culture; assay type: cell-based; details: cells stored 24 hours at 4° C. and separated with 10 μM TEPA
Description: Cord blood-derived cells were collected and stored (unseparated) for 24 hours, at 4° C., either in the presence or absence of 10 μM TEPA. CD34^+ cells were then separated using either 10 μM TEPA-PBS buffer or TEPA free PBS buffer, respectively. Then, cells were grown in long-term cultures in the presence of 10 μM TEPA.

SMILES	No. of CFU*103 (CD34+ cell cultures; week 13)	No. of CFU*103 (CD34+ cell cultures; week 20)	increase of CFU content (CD34+ cell cultures; extended long-term cultures (week 6 to 10), pulse or continuous treatment)	increase in CFU content as compared to control (CD34+ cell cultures; long-term (6 weeks) cultures, pulsed first 3 weeks or continuous antagonist) [fold]	oval cell population (giemsa) (primary hepatocytes; 10^−5 M, primary cultures)	α-fetoprotein (AFP) expression vs control (primary hepatocytes; 10^−5 M)	α-fetoprotein (AFP) expression vs control (primary hepatocytes; 10^−5 M, listed as retinoic acid antagonist)	numbers of hepatocytes vs controls (primary hepatocytes; second passage, EGF + HGF, 10^−5 M to 10^−7 M)	Average Intracellular ppb Cu (HL-60 cells; 20 μM chelator) [ppb]	Average Intracellular ppb Cu (HL-60 cells; 100 μM chelator) [ppb]	Average Intracellular ppb Cu (HL-60 cells; 500 μM chelator) [ppb]	activity at 20 µM (HL-60 cells; Homo sapiens, HL-60, 20 μM chelator, read-out: Average Intracellular Cu (% of control)) [%]	activity at 100 µM (HL-60 cells; Homo sapiens, HL-60, 100 μM chelator, read-out: Average Intracellular Cu (% of control)) [%]	activity at 500 µM (HL-60 cells; Homo sapiens, HL-60, 500 μM chelator, read-out: Average Intracellular Cu (% of control)) [%]	duration of expansion of long-term cultures (Cord blood-derived cells) [weeks]
CCc1ccc(C2=CC(C)(C)Sc3ccc(C#Cc4ccc(C(=O)O)cc4)cc32)cc1 [AGN 194310]	66355 *103	0 *103	15×10^4	5	marked increase in oval cell population	marked increase in AFP expression	increase in the fraction of cells that stained positively for α-fetoprotein	Significantly greater numbers of hepatocytes	–	–	–	–	–	–	–
NCCNCCNCCNCCN [TEPA, tetraethylenepentamine]	–	–	–	–	–	–	–	–	31.5	24.1	17.1	64	49	35	8
